Like-named read-outs stand apart in the source and are kept apart here.
Legend:
GDSC-RD cell line = conditions: Table S2, published drug response ref Iorio et al. (2016); cited from earlier work
[1] = tested on: CCD-18Co (human colon fibroblast) cells; experiment: MTT cell viability assay in normal control cells; assay type: cell-based; conditions: normal cell control, 24 h, MTT
Description: (§1) The RD (human embryonal rhabdomyosarcoma) and CCD-18Co (human colon fibroblast) cell lines were purchased from the Korean Cell Line Bank (KCLB). SJCRH30 (human alveolar rhabdomyosarcoma) cell line was purchased from the American Type Culture Collection (ATCC). RD and CCD-18Co cells were maintained in Dulbecco’s Modified Eagle’s Medium (DMEM; Gibco) supplemented with 10% fetal bovine serum (FBS; Gibco) and 1% penicillin/streptomycin (P/S; Gibco). SJCRH30 cells were maintained in Roswell Park Memorial Institute medium (RPMI 1640, Gibco) supplemented with 10% FBS and 1% P/S. Cells were grown in a humidified chamber containing 5% CO2 at 37°C. Cell line authentication was performed by short tandem repeat profile using PowerPlex® 18D system (Promega Corporation) and sequencing apparatus Applied Biosystems 3130xl Genetic Analyzer (Applied Biosystem) according to manufacturer’s protocol.
(§2) SJCRH30, RD, and CCD-18Co cells were seeded at 2 × 10^4 cells/well in 96-well plates. The candidate drugs were treated for 24 h. AZ628, BIX02189, fedratinib, nutlin-3a, VX-11e, SB590885, NSC207895, tubastatin A, CX-5461, navitoclax, GSK1070916 and the FDA-approved drug library were purchased from Selleckchem. GW.44175 was purchased from Cayman chemical. MTT (3-(4,5-Dimethylthiazol-2-yl)-2,5-Diphenyltetrazolium bromide, Sigma) cell viability detection reagent diluted in serum free medium was added to each well and incubated for 2 h at 37°C. The supernatant was removed, and 50 μL DMSO was added to dissolve the precipitate. Absorbance was measured at 570 nm using a Molecular Devices VersaMax microplate reader and SoftMax® Pro 5 software. IC50 was calculated with GraphPad Prism 7 software.

GDSC-SJCRH30 cell line = conditions: Table S2, published drug response ref Iorio et al. (2016); cited from earlier work
[2] = tested on: SJCRH30 (human alveolar rhabdomyosarcoma) cells; experiment: MTT cell viability assay in SJCRH30 cells; assay type: cell-based; conditions: 24 h; for anti-proliferation / anti-cancer activity in SJCRH30 cells: in words; for IC50: Homo sapiens, Rhabdomyosarcoma cell, SJ-S drugs, SJCRH30 cells, read-out: IC50(μM) RMS
Description: as §1, §2

[3] = tested on: RD (human embryonal rhabdomyosarcoma) cells; experiment: MTT cell viability assay in RD cells; assay type: cell-based; conditions: 24 h; for anti-proliferation / anti-cancer activity in RD cells: in words; for IC50: RD-S drugs, RD cells, read-out: IC50(μM) RMS
Description: as §1, §2

CCc1cc2c(cc1N1CCC(N3CCOCC3)CC1)C(C)(C)c1[nH]c3cc(C#N)ccc3c1C2=O [Alectinib]
Iorio_RD (GDSC-RD cell line): R | IC50 ([1]; Homo sapiens, CCD-18Co): 5.96 µM | Iorio_SJCRH30 (GDSC-SJCRH30 cell line): S | anti-proliferation / anti-cancer activity in SJCRH30 cells [2]: higher anti-cancer activity | IC50 [2]: 3.21 µM

CCn1cc(-c2ccnc3[nH]c(-c4cccc(CN(C)C)c4)cc23)c(-c2ccc(NC(=O)N(C)C)cc2)n1 [GSK1070916]
Iorio_RD (GDSC-RD cell line): R | IC50(μM) CCD-18Co [1]: No cytotoxicity | Iorio_SJCRH30 (GDSC-SJCRH30 cell line): R | anti-proliferation / anti-cancer activity in SJCRH30 cells [2]: higher anti-cancer activity | IC50 [2]: 1.4 µM

CC1(C)CCC(c2ccc(Cl)cc2)=C(CN2CCN(c3ccc(C(=O)NS(=O)(=O)c4ccc(N[C@H](CCN5CCOCC5)CSc5ccccc5)c(S(=O)(=O)C(F)(F)F)c4)cc3)CC2)C1 [Navitoclax]
IC50 ([1]; Homo sapiens, CCD-18Co): 0.319 µM | Iorio_SJCRH30 (GDSC-SJCRH30 cell line): R | anti-proliferation / anti-cancer activity in SJCRH30 cells [2]: higher anti-cancer activity | IC50 [2]: 0.764 µM

CN(C)CCOc1ccc(-c2nc(-c3ccncc3)c(-c3ccc4c(c3)CC/C4=N\O)[nH]2)cc1 [SB590885]
anti-proliferation / anti-cancer activity in RD cells [3]: higher anti-cancer activity | IC50 ([3]; Homo sapiens): 2.52 µM | IC50 ([1]; Homo sapiens, CCD-18Co): 4.88 µM | Iorio_SJCRH30 (GDSC-SJCRH30 cell line): R

CCc1c2c(nc3ccc(O)cc13)-c1cc3c(c(=O)n1C2)COC(=O)[C@]3(O)CC [SN-38]
Iorio_RD (GDSC-RD cell line): R | Iorio_SJCRH30 (GDSC-SJCRH30 cell line): R

CC1(C)CC(=O)c2c(C(F)(F)F)nn(-c3ccc(C(N)=O)c(N[C@H]4CC[C@H](O)CC4)c3)c2C1 [SNX-2112]
Iorio_RD (GDSC-RD cell line): R | Iorio_SJCRH30 (GDSC-SJCRH30 cell line): R

Cc1cccc(Nc2nc(-c3ccncc3)cs2)c1 [STF-62247]
Iorio_RD (GDSC-RD cell line): R | Iorio_SJCRH30 (GDSC-SJCRH30 cell line): R

CC(C)=CC[C@@H](O)C1=CC(=O)c2c(O)ccc(O)c2C1=O [Shikonin]
Iorio_RD (GDSC-RD cell line): R | Iorio_SJCRH30 (GDSC-SJCRH30 cell line): R

O=S(=O)(c1ccccc1)N(CC(F)(F)F)c1ccc(C(O)(C(F)(F)F)C(F)(F)F)cc1 [T0901317]
Iorio_RD (GDSC-RD cell line): R | Iorio_SJCRH30 (GDSC-SJCRH30 cell line): R

CCc1nc(-c2cccc(C)c2)c(-c2ccnc(NC(=O)c3ccccc3)c2)s1 [TAK-715]
Iorio_RD (GDSC-RD cell line): R | Iorio_SJCRH30 (GDSC-SJCRH30 cell line): R

CN(C)C/C=C/C(=O)Nc1ccc(C(=O)Nc2cccc(Nc3ncc(Cl)c(-c4c[nH]c5ccccc45)n3)c2)cc1 [THZ-2-102-1]
Iorio_RD (GDSC-RD cell line): R | Iorio_SJCRH30 (GDSC-SJCRH30 cell line): R

NC(=O)Nc1sc(-c2ccc(F)cc2)cc1C(N)=O [TPCA-1]
Iorio_RD (GDSC-RD cell line): R | Iorio_SJCRH30 (GDSC-SJCRH30 cell line): R

CC(C)c1ccccc1Cc1cc(C(=O)Nc2ccc(S(=O)(=O)c3ccccc3C(C)(C)C)cc2)c(O)c(O)c1O [TW-37]
Iorio_RD (GDSC-RD cell line): R | Iorio_SJCRH30 (GDSC-SJCRH30 cell line): R

CC/C(=C(\c1ccccc1)c1ccc(OCCN(C)C)cc1)c1ccccc1 [Tamoxifen]
Iorio_RD (GDSC-RD cell line): R | Iorio_SJCRH30 (GDSC-SJCRH30 cell line): R

Cn1nnc2c(C(N)=O)ncn2c1=O [Temozolomide]
Iorio_RD (GDSC-RD cell line): R | Iorio_SJCRH30 (GDSC-SJCRH30 cell line): R

C/C=C(/C)C(=O)O[C@H]1C(C)=C2[C@H]([C@@H]1OC(=O)CCCCCCC)[C@@](C)(OC(C)=O)C[C@H](OC(=O)CCC)[C@@]1(O)[C@H]2OC(=O)[C@@]1(C)O [Thapsigargin]
Iorio_RD (GDSC-RD cell line): R | Iorio_SJCRH30 (GDSC-SJCRH30 cell line): R

Cn1cncc1[C@@](N)(c1ccc(Cl)cc1)c1ccc2c(c1)c(-c1cccc(Cl)c1)cc(=O)n2C [Tipifarnib]
Iorio_RD (GDSC-RD cell line): R | Iorio_SJCRH30 (GDSC-SJCRH30 cell line): R

CC(=O)Nc1cccc(-n2c(=O)n(C3CC3)c(=O)c3c(Nc4ccc(I)cc4F)n(C)c(=O)c(C)c32)c1 [Trametinib]
Iorio_RD (GDSC-RD cell line): S | Iorio_SJCRH30 (GDSC-SJCRH30 cell line): R

CN1CCc2c(c3ccccc3n2Cc2ccc(C(=O)NO)cc2)C1 [Tubastatin-A]
Iorio_RD (GDSC-RD cell line): S | Iorio_SJCRH30 (GDSC-SJCRH30 cell line): R

O=C(c1ccc(C(=O)N2CCC(N3CCCC3)CC2)c(Nc2ccccc2)c1)N1CCC(N2CCCC2)CC1 [UNC1215]
Iorio_RD (GDSC-RD cell line): R | Iorio_SJCRH30 (GDSC-SJCRH30 cell line): S

CCCC(=O)OCc1ccc(OC(=O)/C=C(C)/C=C/C=C(C)/C=C/C2=C(C)CCCC2(C)C)cc1 [VNLG-124]
Iorio_RD (GDSC-RD cell line): R | Iorio_SJCRH30 (GDSC-SJCRH30 cell line): R

Cc1cnc(Nc2ccc(F)cc2Cl)nc1-c1c[nH]c(C(=O)N[C@H](CO)c2cccc(Cl)c2)c1 [VX-11e]
anti-proliferation / anti-cancer activity in RD cells [3]: higher anti-cancer activity | IC50 [3]: 3.79 µM | Iorio_RD (GDSC-RD cell line): S | IC50 [1]: 4.04 µM | Iorio_SJCRH30 (GDSC-SJCRH30 cell line): R

CCC1=C[C@@H]2CN(C1)Cc1c([nH]c3ccccc13)[C@@](C(=O)OC)(c1cc3c(cc1OC)N(C)[C@H]1[C@@](O)(C(=O)OC)[C@H](OC(C)=O)[C@]4(CC)C=CCN5CC[C@]31[C@@H]54)C2 [Vinorelbine]
Iorio_RD (GDSC-RD cell line): R | Iorio_SJCRH30 (GDSC-SJCRH30 cell line): R

Oc1nc(-c2ccc(C(F)(F)F)cc2)nc2c1CSCC2 [XAV-939]
Iorio_RD (GDSC-RD cell line): R | Iorio_SJCRH30 (GDSC-SJCRH30 cell line): R

COc1cc2nccc(Oc3ccc(NC(=O)C4(C(=O)Nc5ccc(F)cc5)CC4)cc3)c2cc1OC [XL-184]
Iorio_RD (GDSC-RD cell line): R | Iorio_SJCRH30 (GDSC-SJCRH30 cell line): R

COc1cc2c(Oc3ccc(NC(=O)C4(C(=O)Nc5ccc(F)cc5)CC4)cc3F)ccnc2cc1OCCCN1CCOCC1 [XL-880]
Iorio_RD (GDSC-RD cell line): R | Iorio_SJCRH30 (GDSC-SJCRH30 cell line): R

COc1cc(N2CCN(C)CC2)ccc1Nc1nc(N)c(C(=O)c2c(Cl)cccc2Cl)s1 [XMD14-99]
Iorio_RD (GDSC-RD cell line): R | Iorio_SJCRH30 (GDSC-SJCRH30 cell line): R

C[C@@H](N)c1ccc(C(=O)Nc2ccnc3[nH]ccc23)cc1 [Y-39983]
Iorio_RD (GDSC-RD cell line): R | Iorio_SJCRH30 (GDSC-SJCRH30 cell line): R

COc1ccc(C(=O)CC2(O)C(=O)Nc3c(Cl)ccc(Cl)c32)cc1 (stereo not drawn) [YK-4-279]
Iorio_RD (GDSC-RD cell line): R | Iorio_SJCRH30 (GDSC-SJCRH30 cell line): R

COCCn1c2c([n+](Cc3cnccn3)c1C)C(=O)c1ccccc1C2=O [YM155]
Iorio_RD (GDSC-RD cell line): R | Iorio_SJCRH30 (GDSC-SJCRH30 cell line): R

Nc1ccc(C(=O)Nc2cccc(-c3nc(N4CCOCC4)c4oc5ncccc5c4n3)c2)cn1 [YM201636]
Iorio_RD (GDSC-RD cell line): R | Iorio_SJCRH30 (GDSC-SJCRH30 cell line): R

FC(F)c1nc2ccccc2n1-c1nc(N2CCOCC2)nc(N2CCOCC2)n1 [ZSTK474]
Iorio_RD (GDSC-RD cell line): R | Iorio_SJCRH30 (GDSC-SJCRH30 cell line): R

COc1nc(C)cnc1NS(=O)(=O)c1cccnc1-c1ccc(-c2nnco2)cc1 [Zibotentan]
Iorio_RD (GDSC-RD cell line): R | Iorio_SJCRH30 (GDSC-SJCRH30 cell line): R

COc1cc(/C=C/C(=O)N2CCC=CC2=O)cc(OC)c1OC [piperlongumine]
Iorio_RD (GDSC-RD cell line): S | Iorio_SJCRH30 (GDSC-SJCRH30 cell line): R

CCT007093
Iorio_RD (GDSC-RD cell line): R | Iorio_SJCRH30 (GDSC-SJCRH30 cell line): R

I-BET-151
Iorio_RD (GDSC-RD cell line): R | Iorio_SJCRH30 (GDSC-SJCRH30 cell line): R

B1: rTRAIL: GDSC anti-cancer compound (protein, UniProt P50591 1-281, looked up)
Tumor necrosis factor ligand …: MAMMEVQGGPSLGQTCVLIVIFTVLLQSLCVAVTYVYFTNELKQMQDKYSKSGIACFLKEDDSYWDPNDEESMNSPCWQVKWQLRQLVRKMILRTSEETISTVQEKQQNISPLVRERGPQRVAAHITGTRGRSNTLSSPNSKNEKALGRKINSWESSRSGHSFLSNLHLRNGELVIHEKGFYYIYSQTYFRFQEEIKENTKNDKQMVQYIYKYTSYPDPILLMKSARNSCWSKDAEYGLYSIYQGGIFELKENDRIFVSVTNEHLIDMDHEASFFGAFLVG
Iorio_RD (GDSC-RD cell line): S | Iorio_SJCRH30 (GDSC-SJCRH30 cell line): R
